# Results as given in patent US12310973B2, “Administration and dosage of diaminophenothiazines” (WisTa Laboratories Ltd., priority 2016, dated 2025).
# System: mild to moderate AD patients
# Assay: Phase 3 trial in mild to moderate AD: MRI volumetry (LVV, TPV, HV)
# Assay type: in vivo, human
# Details: for HV, Estimate (difference vs control) / LVV, Estimate (difference vs control) / TPV, Estimate (difference vs control): Table 5
# Description: The co-primary efficacy outcomes were change from baseline in 11-item Alzheimer's Disease Assessment Scale—cognitive subscale (ADAS-cog) and the 23-item Alzheimer's Disease Cooperative Study Activities of Daily Living (ADCS-ADL). Magnetic resonance imaging (MRI) volumetry was chosen as the principal secondary outcome to support a potential effect on the rate of brain atrophy (Fox et al., 1997; Ridha et al., 2008). Change in Lateral Ventricular Volume (LVV), as measured by the Ventricular Boundary Shift Integral (VBSI), (Salloway et al., 2014) was chosen as the principal measure as it provides high-contrast boundaries for measurement and is less affected by motion artefacts than whole brain or smaller structures. Key supportive topographical measures (temporo-parietal (TPV) and hippocampal volume (HV)) are also reported.
# ADAS-cog and ADCS-ADL assessments were performed at baseline and every 13 weeks thereafter, with change at 65 weeks (the final on-treatment visit) the primary efficacy measures. These were repeated at the final off-treatment follow-up visit at Week 69. Secondary efficacy measures included Clinical Global Impression of Change (ADCS-CGIC, administered by an independent rater); MMSE, administered on screening and at Weeks 26, 52, 65 and 69. Brain MRI scans were performed at baseline/screening and every 13 weeks using a standardized protocol including volumetric 3D T1-weighted data consistent with ADNI recommendations, FLAIR, T2* Gradient Echo and T2-weighted sequences. Diffusion-Weighted Imaging was also available at screening in order to exclude patients with co-existing pathology that would lead to a diagnosis other than probable AD. Each site was first qualified ensuring standardised acquisition protocol, patient handling and data management. MRI data were centrally collected by Imaging Corelab (Bioclinica). Data were centrally reviewed by RadMD for eligibility and safety (Amyloid Related Imaging Abnormalities, or ARIA monitoring) on an on-going basis. Volumetric 3DT1 data were also reviewed centrally in order to measure (using a boundary shift integral (BSI) technique; Salloway et al., 2014) change in LVV as principal secondary outcome measure, and as exploratory endpoints temporo-parietal volume (TPV), whole brain volume (WBV) and hippocampal volume (HV, estimated as the mean of left and right) (Wischik et al., 2016). Additional exploratory endpoints included change in glucose uptake in the temporal lobe, assessed using ^18F-fluorodeoxyglucose positron emission tomography (FDG-PET) performed during screening and at Weeks 39 and 65 in a subset of patients in sites with this imaging capability. Changes in cerebrospinal fluid biomarkers of Alzheimer's disease, including total tau, phospho-tau and amyloid-β1-42, were explored using cerebrospinal fluid samples that were collected at baseline and Week 65 (or early termination visit). Lumbar punctures were performed only in subjects who were themselves able to provide consent specifically for this procedure.
# The primary efficacy analyses of change from baseline in ADAS-cog and ADCS-ADL scores were conducted in the modified intent-to-treat (mITT) population (all randomised patients who took at least one dose of study treatment and had at least one post-baseline, on-treatment efficacy assessment). The primary analysis was specified as a mixed model repeated-measures (MMRM) analysis with an unstructured covariance matrix and no imputation for missing data. The model included categorical visit (5 levels corresponding to assessments at weeks 13, 26, 39, 52 and 65), treatment (3 levels corresponding to control, 75 mg b.i.d. and 125 mg b.i.d.), treatment-by-visit interaction, and the stratification variables as additive terms, and baseline ADAS-cog or ADCS-ADL as a covariate. A similar exploratory analysis was specified in the Statistical Analysis Plan (SAP) with the AChEI/Mem covariate as an interaction term with treatment and as an interaction term with visit. […]
# [1] = Table 5, AChEI/Mem as interaction term, control arm (4 mg b.i.d.)
# [2] = Table 6 post-hoc, control-arm subjects, 4 mg b.i.d. + AChEI/Mem
# [3] = Table 6 post-hoc, 4 mg b.i.d. alone vs 4 mg b.i.d. + AChEI/Mem
# [4] = Table 7, mild AD, 4 mg b.i.d. + AChEI/Mem (control-arm subjects)
# [5] = Table 7, mild AD, 4 mg b.i.d. alone vs 4 mg b.i.d. + AChEI/Mem
# [6] = Table 7, mild AD, 75 mg b.i.d. alone vs control arm as randomised
# [7] = Table 7, mild AD, 125 mg b.i.d. alone vs control arm as randomised
# [8] = Table 7, mild AD, control arm as randomised (4 mg b.i.d.)
# [9] = Table 7, moderate AD, 4 mg b.i.d. + AChEI/Mem (control-arm subjects)
# [10] = Table 7, moderate AD, 4 mg b.i.d. alone vs 4 mg b.i.d. + AChEI/Mem
# [11] = Table 7, moderate AD, 75 mg b.i.d. alone vs control arm as randomised
# [12] = Table 7, moderate AD, 125 mg b.i.d. alone vs control arm as randomised
# [13] = Table 7, moderate AD, control arm as randomised (4 mg b.i.d.)
smiles,measurement,setting,value
"CN(C)c1ccc2c(c1)Sc1cc(N(C)C)ccc1N2 [LMTM, leuco-methythioninium bis(hydromethanesulfonate)]",Increase in TPV relative to control,75 mg b.i.d. monotherapy,31%±8%
same,Reduction in LVV (progression of atrophy) relative to control,75 mg b.i.d. monotherapy,38%±9%
same,Increase in TPV relative to control,125 mg b.i.d. monotherapy,26%±8%
same,Reduction in LVV (progression of atrophy) relative to control,125 mg b.i.d. monotherapy,33%±9%
same,"HV, Estimate (change from baseline)",[1],−115.3 mm^3
same,"LVV, Estimate (change from baseline)",[1],"7,187 mm^3"
same,"TPV, Estimate (change from baseline)",[1],−1529 mm^3
same,"HV, Estimate (difference vs control)",75 mg b.i.d. + AChEI/Mem,−2.0 mm^3
same,"LVV, Estimate (difference vs control)",75 mg b.i.d. + AChEI/Mem,−273 mm^3
same,"TPV, Estimate (difference vs control)",75 mg b.i.d. + AChEI/Mem,−39 mm^3
same,"HV, Estimate (difference vs control)",75 mg b.i.d. monotherapy,9.5 mm^3
same,"LVV, Estimate (difference vs control)",75 mg b.i.d. monotherapy,"−2,707 mm^3"
same,"TPV, Estimate (difference vs control)",75 mg b.i.d. monotherapy,472 mm^3
same,"HV, Estimate (difference vs control)",125 mg b.i.d. + AChEI/Mem,−7.4 mm^3
same,"LVV, Estimate (difference vs control)",125 mg b.i.d. + AChEI/Mem,−306 mm^3
same,"TPV, Estimate (difference vs control)",125 mg b.i.d. + AChEI/Mem,−12 mm^3
same,"HV, Estimate (difference vs control)",125 mg b.i.d. monotherapy,20.0 mm^3
same,"LVV, Estimate (difference vs control)",125 mg b.i.d. monotherapy,"−2,347 mm^3"
same,"TPV, Estimate (difference vs control)",125 mg b.i.d. monotherapy,405 mm^3
same,"HV, Estimate (change from baseline)",[2],−117.8 mm^3
same,"LVV, Estimate (change from baseline)",[2],"7,426 mm^3"
same,"TPV, Estimate (change from baseline)",[2],"−1,596 mm^3"
same,"HV, Estimate (difference)",[3],19.5 mm^3
same,"LVV, Estimate (difference)",[3],"−1,894 mm^3"
same,"TPV, Estimate (difference)",[3],534 mm^3
same,"HV, Estimate (change from baseline)",[4],−119.5 mm^3
same,"LVV, Estimate (change from baseline)",[4],"6,167 mm^3"
same,"TPV, Estimate (change from baseline)",[4],"−1,398 mm^3"
same,"HV, Estimate (difference)",[5],46.7 mm^3
same,"LVV, Estimate (difference)",[5],"−2,655 mm^3"
same,"TPV, Estimate (difference)",[5],722 mm^3
same,"HV, Estimate (difference)",[6],16.9 mm^3
same,"LVV, Estimate (difference)",[6],"−2,549 mm^3"
same,"TPV, Estimate (difference)",[6],392 mm^3
same,"HV, Estimate (difference)",[7],40.5 mm^3
same,"LVV, Estimate (difference)",[7],"−2,695 mm^3"
same,"TPV, Estimate (difference)",[7],439 mm^3
same,"HV, Estimate (change from baseline)",[8],−115.8 mm^3
same,"LVV, Estimate (change from baseline)",[8],"5,789 mm^3"
same,"TPV, Estimate (change from baseline)",[8],"−1,309 mm^3"
same,"HV, Estimate (change from baseline)",[9],−116.6 mm^3
same,"LVV, Estimate (change from baseline)",[9],"8,143 mm^3"
same,"TPV, Estimate (change from baseline)",[9],"−1,697 mm^3"
same,"HV, Estimate (difference)",[10],−2.4 mm^3
same,"LVV, Estimate (difference)",[10],−940 mm^3
same,"TPV, Estimate (difference)",[10],370 mm^3
same,"HV, Estimate (difference)",[11],3.6 mm^3
same,"LVV, Estimate (difference)",[11],"−2,251 mm^3"
same,"TPV, Estimate (difference)",[11],469 mm^3
same,"HV, Estimate (difference)",[12],2.2 mm^3
same,"LVV, Estimate (difference)",[12],"−1,703 mm^3"
same,"TPV, Estimate (difference)",[12],293 mm^3
same,"HV, Estimate (change from baseline)",[13],−116.9 mm^3
same,"LVV, Estimate (change from baseline)",[13],"8,023 mm^3"
same,"TPV, Estimate (change from baseline)",[13],"−1,649 mm^3"
same,Hippocampus volume benefit (increase),"mild patients, LMTM monotherapy",35.5 mm^3
